Measurements published in patent publication US8865715B2, “Substituted 7-(1,2,3-Triazol-4-yl)-pyrrolo[2,3-b]pyrazines” (Merck Patent GmbH, priority 2010, dated 2014).

Legend:
Type in all cases: biochemical
[1] = target: T1, PDK1 (Homo sapiens, UniProt O15530); test: Test for the inhibition of PDK1 (384-well flashplate, 33P-ATP)
T1 construct: His6 (N)
T1 sequence (O15530 51-556 limits assumed): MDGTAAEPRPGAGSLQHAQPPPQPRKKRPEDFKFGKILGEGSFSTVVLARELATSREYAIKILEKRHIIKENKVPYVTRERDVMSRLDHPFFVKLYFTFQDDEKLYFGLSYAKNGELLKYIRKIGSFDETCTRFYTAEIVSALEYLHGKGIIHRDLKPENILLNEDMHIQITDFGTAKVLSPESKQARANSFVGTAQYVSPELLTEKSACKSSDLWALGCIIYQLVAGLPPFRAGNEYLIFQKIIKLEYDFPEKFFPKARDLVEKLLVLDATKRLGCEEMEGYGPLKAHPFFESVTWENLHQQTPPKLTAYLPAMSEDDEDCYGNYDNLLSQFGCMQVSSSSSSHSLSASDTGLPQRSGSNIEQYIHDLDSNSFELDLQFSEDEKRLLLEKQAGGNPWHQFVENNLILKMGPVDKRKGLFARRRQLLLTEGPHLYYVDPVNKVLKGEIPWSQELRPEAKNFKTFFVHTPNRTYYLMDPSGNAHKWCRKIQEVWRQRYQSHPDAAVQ
Method: 4.0 Test for the Inhibition of PDK1
The experimental batches are carried out in a flashplate system with 384 wells/microtitration plate.
In each case, the PDK1 sample His6-PDK1(1-50) (3.4 nM), the PDK1 substrate biotin-bA-bA-[…] (400 nM), 4 μM ATP (with 0.2 μCi of ^33P-ATP/well) and the test substance in 50 μl of conventional experimental solution per well are incubated at 30° C. for 60 min. The test substances are employed in corresponding concentrations (if desired in a dilution series). The control is carried out without test substance. The reaction is stopped using standard methods and washed. The activity of the kinase is measured via the incorporated radioactivity in top count. In order to determine the non-specific kinase reaction (blank value), the experimental batches are carried out in the presence of 100 nM staurosporine.
The radioactivity (decompositions per minute) of the blank value (no use of test substance in the presence of staurosporine) is subtracted from all other radioactivity values. The controls (kinase activity without test substance) are set equal to 100 percent and all other radioactivity values (after subtracting the blank value) are expressed set in relation thereto (for example in % of the control).
IC50 values (50% inhibition) are determined with the aid of statistics programmes, such as, for example, RS1.

[2] = target: T2, IKKε (Homo sapiens, UniProt Q14164); test: IKKε-kinase test (IKKepsilon), 384-well flashplate assay
T2 sequence (Q14164 1-716): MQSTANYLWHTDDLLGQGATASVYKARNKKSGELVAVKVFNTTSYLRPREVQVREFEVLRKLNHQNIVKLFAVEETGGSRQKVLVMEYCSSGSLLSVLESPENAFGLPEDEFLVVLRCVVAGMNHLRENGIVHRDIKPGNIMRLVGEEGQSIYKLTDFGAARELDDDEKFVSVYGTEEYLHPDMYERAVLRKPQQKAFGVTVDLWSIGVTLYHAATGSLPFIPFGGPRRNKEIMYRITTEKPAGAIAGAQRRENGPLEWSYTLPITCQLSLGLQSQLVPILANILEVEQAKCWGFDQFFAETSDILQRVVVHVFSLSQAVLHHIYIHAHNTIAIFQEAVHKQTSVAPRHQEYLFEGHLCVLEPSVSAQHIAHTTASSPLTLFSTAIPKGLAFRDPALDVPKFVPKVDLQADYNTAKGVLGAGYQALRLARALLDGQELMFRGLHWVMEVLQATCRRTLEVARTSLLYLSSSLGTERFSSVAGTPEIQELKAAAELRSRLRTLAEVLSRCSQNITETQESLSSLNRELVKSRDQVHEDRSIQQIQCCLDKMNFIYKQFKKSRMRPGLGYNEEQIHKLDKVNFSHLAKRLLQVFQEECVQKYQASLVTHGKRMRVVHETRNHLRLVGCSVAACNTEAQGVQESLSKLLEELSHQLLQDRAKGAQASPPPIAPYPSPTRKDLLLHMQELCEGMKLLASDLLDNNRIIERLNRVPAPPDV
Method: IKKε-Kinase Test (IKKepsilon)
The kinase assay is performed as 384-well flashplate assay. 1 nM IKKε, 800 nM biotinylated IκBα(19-42) peptide (biotin-C6-C6-[…]) and 10 μM ATP (with 0.3 μCi of ^33P-ATP/well) are incubated in a total volume of 50 μl (10 mM MOPS, 10 mM magnesium acetate, 0.1 mM EGTA, 1 mM dithiothreitol, 0.02% of Brij35, 0.1% of BSA, 0.1% of BioStab, pH 7.5) with or without test substance at 30° C. for 120 min. The reaction is stopped using […] of 200 mM EDTA solution, filtered off with suction after 30 min at room temperature, and the wells are washed 3 times with 100 μl of 0.9% NaCl solution. The non-specific proportion of the kinase reaction (blank) is determined using 3 μM EMD 1126352 (BX-795). Radioactivity is measured in the Topcount. IC50 values are calculated using RS1.

[3] = target: T3, TANK binding kinase (TBK1) (Homo sapiens, UniProt Q9UHD2); test: TBK1-kinase test, 384-well flashplate assay
T3 sequence (Q9UHD2 1-729): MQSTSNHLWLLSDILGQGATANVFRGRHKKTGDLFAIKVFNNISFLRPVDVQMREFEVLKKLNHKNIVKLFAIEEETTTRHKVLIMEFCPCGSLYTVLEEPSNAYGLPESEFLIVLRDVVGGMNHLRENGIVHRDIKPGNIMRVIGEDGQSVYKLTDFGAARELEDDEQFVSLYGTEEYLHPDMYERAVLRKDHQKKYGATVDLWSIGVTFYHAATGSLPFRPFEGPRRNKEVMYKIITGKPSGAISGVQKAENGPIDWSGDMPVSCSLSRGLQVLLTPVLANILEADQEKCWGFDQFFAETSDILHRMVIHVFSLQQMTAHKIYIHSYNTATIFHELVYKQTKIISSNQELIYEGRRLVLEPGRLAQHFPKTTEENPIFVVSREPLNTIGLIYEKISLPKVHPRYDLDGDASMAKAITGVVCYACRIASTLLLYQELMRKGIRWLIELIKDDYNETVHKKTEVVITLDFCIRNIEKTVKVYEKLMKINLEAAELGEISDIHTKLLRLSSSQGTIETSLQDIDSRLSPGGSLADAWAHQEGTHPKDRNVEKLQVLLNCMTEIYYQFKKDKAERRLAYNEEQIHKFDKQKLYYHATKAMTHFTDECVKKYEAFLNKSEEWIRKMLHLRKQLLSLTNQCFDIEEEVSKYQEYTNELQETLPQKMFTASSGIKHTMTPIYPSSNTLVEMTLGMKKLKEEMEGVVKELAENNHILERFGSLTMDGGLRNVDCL
Method: The kinase assay is performed as 384-well flashplate assay. 0.6 nM TANK binding kinase (TBK1), 800 nM biotinylated MELK-derived peptide (biotin-Ah-Ah-[…]) and 10 μM ATP (with 0.25 μCi of ^33P-ATP/well) are incubated in a total volume of 50 μl (10 mM MOPS, 10 mM magnesium acetate, 0.1 mM EGTA, 1 mM DTT, 0.02% of Brij35, 0.1% of BSA, pH 7.5) with or without test substance at 30° C. for 120 min. The reaction is stopped using […] of 200 mM EDTA solution, filtered off with suction after 30 min at room temperature, and the wells are washed 3 times with 100 μl of 0.9% NaCl solution. The non-specific proportion of the kinase reaction (blank) is determined using 100 nM staurosporine. Radioactivity is measured in the Topcount. IC50 values are calculated using RS1.

| Structure (SMILES) | IC50 [1] | IC50 [2] | IC50 [3] |
| --- | --- | --- | --- |
| Cn1cc(-c2cnc3[nH]cc(-c4cn(Cc5ccc(F)cc5)nn4)c3n2)cn1 [Compound A10] | 0.0005 to 1 µM | 0.0005 to 1 µM | 0.0005 to 1 µM |
| Cn1cc(-c2cnc3[nH]cc(-c4cn(Cc5ccccc5)nn4)c3n2)cn1 [Compound A2, 7-(1-benzyl-1H-1,2,3-triazol-4-yl)-2-(1-methyl-1H-pyrazol-4-yl)-5H-pyrrolo[2,3-b]pyrazine] | 0.0005 to 1 µM | 0.0005 to 1 µM | 0.0005 to 1 µM |
| Cn1cc(-c2cnc3[nH]cc(-c4cn(Cc5cccc(F)c5)nn4)c3n2)cn1 [Compound A3] | 0.0005 to 1 µM | 0.0005 to 1 µM | 0.0005 to 1 µM |
| Cn1cc(-c2cnc3[nH]cc(-c4cn(C(CCN5CCCC5)c5ccccc5)nn4)c3n2)cn1 (centres unmarked) [Compound A11, 7-[1-(3-Pyrrolidin-1-yl-1-phenylpropyl)-1H-1,2,3-triazol-4-yl]-2-(1-methyl-1H-pyrazol-4-yl)-5H-pyrrolo[2,3-b]pyrazine] | 0.0005 to 1 µM | 0.0005 to 1 µM | 0.0005 to 1 µM |
| Cn1cc(-c2cnc3[nH]cc(-c4cn(Cc5ccccc5Cl)nn4)c3n2)cn1 [Compound A5] | 0.0005 to 1 µM | 0.0005 to 1 µM | 0.0005 to 1 µM |

The next lines start with the values.

| IC50 [1] | IC50 [2] | IC50 [3] | Structure (SMILES) |
| --- | --- | --- | --- |
| 0.0005 to 1 µM | 0.0005 to 1 µM | 0.0005 to 1 µM | Cn1cc(-c2cnc3[nH]cc(-c4cn(Cc5ccccc5C#N)nn4)c3n2)cn1 [Compound A4] |
| 0.0005 to 1 µM | – | 0.0005 to 1 µM | Cn1cc(-c2cnc3[nH]cc(-c4cn(Cc5ccccc5F)nn4)c3n2)cn1 [Compound A12] |
| 0.0005 to 1 µM | 0.0005 to 1 µM | 0.0005 to 1 µM | Cn1cc(-c2cnc3[nH]cc(-c4cn(Cc5cccc(F)c5F)nn4)c3n2)cn1 [Compound A7] |
| 1 to 10 µM | 1 to 10 µM | 1 to 10 µM | c1ccc(Cn2cc(-c3c[nH]c4nccnc34)nn2)cc1 [Compound A1, 7-(1-benzyl-1H-1,2,3-triazol-4-yl)-5H-pyrrolo[2,3-b]pyrazine] |
